Data on 78 compounds can be found in the METLIN SMRT retention time set (Domingo-Almenara et al. 2019).

SMILES strings stand for the structures.

The data set in a line: gradient 5% acetonitrile 3 min, to 50% in 2 min, to 85% in 15 min, held 3 min, 100 µL/min. Particulars: column: Zorbax Extend-C18 2.1 x 50 mm; eluents: water / acetonitrile, 0.1% formic acid. The method, boiled down: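 A Zorbax Extend-C18 column (2.1 × 50 mm, 1.8 μm) run at 100 μL/min with water and acetonitrile, both containing 0.1% formic acid, separated mixtures of ~100 pure standards. The HPLC was coupled to a quadrupole time-of-flight mass spectrometer operated in positive and negative ionization mode, with dead and dwell volumes of 40 μL and 900 μL. Each retention time was taken from a computationally picked adduct peak that was then manually inspected.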
`Cc1ccc(NC(=O)N2CCCC2c2nc(-c3ccccc3)no2)cc1` (stereo not drawn) returned an RP-LC retention time of 964 s.

In turn, `CNC(=O)C1CC(=O)N(C2CCCCC2)C1` (stereo not drawn) came in with an RP-LC retention time of 609 s.

On to `Cc1ccc(NC(=O)Cn2nc(C)cc2C(=O)Nc2ccc3c(c2)OCCO3)cc1`, for which the RP-LC retention time came out at 834 s.

For `O=C(NC1CCCCCC1)C1CCCN(c2ncc(-c3cccc(F)c3)cn2)C1` (stereo not drawn), the RP-LC retention time turned out to be 1160 s.

Compound `O=C(Nc1ccc2c(c1)OCCO2)N1CCC(n2c(-c3ccco3)nc3cccnc32)C1` (stereo not drawn) displayed an RP-LC retention time of 705 s.

As to `Cc1cc(C)cc(S(=O)(=O)Nc2ccc3nc(N4CCN(CCC#N)CC4)cc(C(=O)O)c3c2)c1`, the RP-LC retention time came to 658 s.

`COc1cc(OC)c(NC(=O)N2CCCC2c2nncn2C2CCCC2)cc1Cl` (stereo not drawn) yielded an RP-LC retention time of 668 s.

In turn, `COc1cccc(-c2nc(NCC3CCCO3)ncc2C(=O)O)c1` (stereo not drawn) returned an RP-LC retention time of 712 s.

The compound `COc1cccc(-c2noc(CN3C(=O)COc4cc(C)ccc43)n2)c1` returned an RP-LC retention time of 1050 s.

`COc1ccc(N2CCN(c3cc(SCC(=O)NCc4ccccc4)ncn3)CC2)cc1` showed an RP-LC retention time of 823 s.

Compound `Cc1ccc(C(=O)OCCN2C(=O)c3ccccc3C2=O)cc1` showed an RP-LC retention time of 775 s.

In turn, `CCc1cc(N2CCN(C(=O)c3ccc(F)cc3)CC2)nc2nncn12` gave an RP-LC retention time of 548 s.

For the compound `CN1C(=O)c2cc(S(=O)(=O)NCc3ccc(Cl)cc3)ccc2Oc2cccnc21`, the RP-LC retention time came out at 968 s.

`CCCNC(=O)NCCc1cn(CC)c2ncccc12` registered an RP-LC retention time of 612 s.

`COc1cc(CNc2nnc(-c3nnc(C4CC4)o3)c3ccccc23)cc(OC)c1`: the RP-LC retention time was found to be 878 s.

Take `CN(CC1(C)CCOCC1)S(=O)(=O)c1cn(C)cn1`: the RP-LC retention time turned out to be 615 s.

Compound `CCc1nnc2nc(N3CCN(C(=O)c4nccc5ccccc45)CC3)cc(C)n12` registered an RP-LC retention time of 559 s.

`O=C(NCc1ccco1)C1CCN(S(=O)(=O)c2cc(-c3noc(C4CCC4)n3)cs2)CC1` registered an RP-LC retention time of 917 s.

Compound `NC(=O)c1cc(-c2ccc(F)cc2)nc2ccccc12` registered an RP-LC retention time of 776 s.

The compound `Cc1cccc(NC(=O)Cn2nc3c(Oc4ccc(Cl)cc4)nccn3c2=O)c1` gave an RP-LC retention time of 930 s.

`Fc1ccc(Nc2nc(-c3cccc(Cl)c3)cs2)nc1` came in with an RP-LC retention time of 1190 s.

In turn, `CCOc1ccc(-c2nc(CNC(=O)Nc3cc(OC)ccc3OC)c(C)o2)cc1` registered an RP-LC retention time of 963 s.

The compound `CC1CCC2(CC1)NC(=O)N(CC(=O)Nc1cccc(F)c1)C2=O` (stereo not drawn) displayed an RP-LC retention time of 816 s.

`CCc1nc(-c2cc(S(=O)(=O)NCC(=O)NC3CCCc4ccccc43)c(C)s2)no1` (stereo not drawn) yielded an RP-LC retention time of 998 s.

As for `CCc1cccc(NC(=O)C2CCCN(S(=O)(=O)c3cc(-c4noc(C)n4)cs3)C2)c1` (stereo not drawn), the RP-LC retention time is 870 s.

Regarding `O=C1CC(c2noc(-c3ccccc3)n2)CN1Cc1ccccc1` (stereo not drawn), the RP-LC retention time came to 642 s.

In the case of `COc1cc(-c2noc(Cn3cnc4c(cnn4-c4ccc(F)cc4)c3=O)n2)cc(OC)c1OC`, the RP-LC retention time was determined as 938 s.

`COc1ccc(-n2ccc(=O)c(-c3nc(-c4ccccc4OCc4ccccc4)no3)n2)cc1` returned an RP-LC retention time of 984 s.

Compound `CCC1CN2C=Nc3oc(C)c(C(=O)Nc4cccc(Cl)c4C)c3C2=N1` (stereo not drawn) yielded an RP-LC retention time of 687 s.

For `Cc1noc([C@@H]2CN(C(=O)c3ccc(Cc4c(C)noc4C)o3)C[C@H]2C(N)=O)n1`, the RP-LC retention time was found to be 631 s.

The compound `CCOC(=O)C1CCN(C(=O)c2ccc(-c3nc4ccccc4n(CC(C)C)c3=O)cc2)CC1` yielded an RP-LC retention time of 1060 s.

`N#Cc1cccc(-c2cn3c(n2)N(C(=O)c2ccoc2)CCC3)c1` came in with an RP-LC retention time of 644 s.

As for `COc1ccc(NC(=O)CN2C(=O)c3ccccc3Sc3ncccc32)cc1`, the RP-LC retention time came out at 758 s.

Compound `COc1cc([C@@H]2c3cc4c(cc3[C@H](O)[C@@H](CO)[C@@H]2C(=O)NCCCN(C)C2CCCCC2)OCO4)cc(OC)c1OC` came in with an RP-LC retention time of 573 s.

`O=C(Nc1ccc2c(c1)OCO2)C1CCN(S(=O)(=O)c2cc(C(=O)N3CCCC3)cs2)CC1` displayed an RP-LC retention time of 770 s.

`CC(C)Cn1cc(S(=O)(=O)NCc2ccccc2Cl)c2cccnc21` had an RP-LC retention time of 1020 s.

For the compound `O=C(NCCC1=CCCCC1)C1CCN(C(=O)C2Sc3ccccc3NC2=O)CC1` (stereo not drawn), the RP-LC retention time was 802 s.

`COc1ccc2nc(C(=O)NC3CCCCCC3)cn2n1` returned an RP-LC retention time of 878 s.

`COc1c(C)c2c(c(O)c1C/C=C(\C)CCC(=O)O)C(=O)OC2` had an RP-LC retention time of 800 s.

The compound `CS(=O)(=O)N1CCC(OC2CCN(C(=O)Nc3ccc(F)cc3)CC2)CC1` had an RP-LC retention time of 729 s.

Compound `Cc1cc(C)c(C)c(S(=O)(=O)Nc2ccc(C(=O)NCc3ccccn3)cc2)c1C` registered an RP-LC retention time of 630 s.

`Clc1ccc(Cc2nnc3sc(-c4ccc5ccccc5n4)nn23)cc1` gave an RP-LC retention time of 1210 s.

The compound `CCS(=O)(=O)N1CC(=O)N(c2cc(C)cc(C)c2)C(C)(C(=O)NCc2ccc(F)cc2)C1` (stereo not drawn) had an RP-LC retention time of 892 s.

In the case of `Cc1ccccc1NS(=O)(=O)c1cc2c3c(c1)CCC(=O)N3CCC2`, the RP-LC retention time was found to be 967 s.

As to `Cc1ccc(C(=O)N2CCC3(CC2)NC(=O)c2cc(C)ccc2N3C)cc1`, the RP-LC retention time is 805 s.

In turn, `CC1CCN(C(=O)Cn2nc3nc(Nc4ccc(F)cc4)ccn3c2=O)CC1` displayed an RP-LC retention time of 754 s.

As to `O=C(NCc1ccccc1OC(F)(F)F)c1ccc(OCC(=O)C2CC2)cc1`, the RP-LC retention time amounted to 876 s.

`CCCCNC(=O)Cn1c2ccccc2c2ncn(Cc3nc(-c4ccccc4)no3)c(=O)c21` showed an RP-LC retention time of 910 s.

Turning to `CC1CCN(S(=O)(=O)c2ccc(-c3nnc(C(=O)N4CCCC4)o3)cc2)CC1`, the RP-LC retention time was 941 s.

`CCCn1c(=O)c(-c2ccc(C(=O)NCC(C)C)cc2)nc2cccnc21` gave an RP-LC retention time of 967 s.

`COc1ccc(OC)c(CNC(=O)C2CCCN(c3cnc4nccnc4c3)C2)c1` (stereo not drawn) showed an RP-LC retention time of 710 s.

`Cc1ccc(-n2c(=O)n(CC(=O)NCCN3CCCCC3)c3cccnc32)cc1` returned an RP-LC retention time of 616 s.

Turning to `O=C(c1c[nH]c2ccccc12)N1CCC2(CC1)NC(=O)N(Cc1ccccc1)C2=O`, the RP-LC retention time worked out at 750 s.

`CCNc1nc(C)cc(N2CCN(C(=O)Nc3cc(C)ccc3C)CC2)n1` returned an RP-LC retention time of 668 s.

As for `COc1cc(OC)cc(-c2nc(C3CC(=O)N(c4ccc(OC)c(OC)c4)C3)no2)c1` (stereo not drawn), the RP-LC retention time was found to be 877 s.

As to `Cc1cc(C)cc(NC(=O)c2cc3sccc3n2C)c1`, the RP-LC retention time turned out to be 1090 s.

On to `Cc1ccc(F)cc1NS(=O)(=O)c1c[nH]c2ncccc12`, for which the RP-LC retention time came to 747 s.

Turning to `CC1CCN(c2ncc3c(n2)CCC(C(=O)NCCc2cccnc2)C3)CC1` (stereo not drawn), the RP-LC retention time was 598 s.

Compound `O=C(CSc1nnc(NC(=O)C2CCCCC2)s1)Nc1ccc2c(c1)OCO2` yielded an RP-LC retention time of 802 s.

In turn, `O=c1c2scc(-c3ccc(Br)cc3)c2ncn1Cc1ccccn1` displayed an RP-LC retention time of 938 s.

`Cc1cc(Cl)ccc1S(=O)(=O)NC1CCc2nn(C)c(=O)n2CC1` (stereo not drawn) gave an RP-LC retention time of 708 s.

The compound `CCSc1nnc(-c2nn(C)c3c2CN(C(=O)c2ccccc2C)CC3)n1C` showed an RP-LC retention time of 734 s.

`COc1ccc(C2Cn3cnc(C(=O)N4CCC(C(=O)NCC5CC5)CC4)c3CO2)cc1` (stereo not drawn): the RP-LC retention time is 649 s.

`Cc1ccc2nc(-c3ccccc3O)c(Nc3ccc4c(c3)OCCO4)n2c1` showed an RP-LC retention time of 684 s.

For the compound `O=C(CC1CCCCC1)Nc1ccc(-c2cn3cccnc3n2)cc1`, the RP-LC retention time came to 688 s.

As for `CCOC(=O)C1CCN(C(=O)c2cc(=O)c(OCc3ccc(F)cc3)cn2C)CC1`, the RP-LC retention time came out at 750 s.

Consider `COc1cc(OC)cc(N2C(=O)C3N=NN(Cc4nc(-c5ccccc5)no4)C3C2=O)c1` (stereo not drawn), for which the RP-LC retention time came out at 959 s.

Turning to `CC(C)NC(=O)C1CCCN(c2nc3ncn(CC(=O)Nc4ccc(F)c(F)c4)c(=O)c3s2)C1` (stereo not drawn), the RP-LC retention time came to 716 s.

`CCc1ccccc1N1C(=O)CN(S(C)(=O)=O)CC1(C)C(=O)NCc1ccccc1` (stereo not drawn) gave an RP-LC retention time of 804 s.

Take `CN1Cc2c(N)cccc2C(c2ccccc2)C1` (stereo not drawn): the RP-LC retention time was found to be 678 s.

In turn, `COC(=O)c1ccc(CSc2nnc(N3CCN(c4ccccc4OC)CC3)s2)o1` gave an RP-LC retention time of 894 s.

With `COc1cc(C(=O)Nc2cccc(N3CCCS3(=O)=O)c2)c([N+](=O)[O-])cc1OC`, the RP-LC retention time came out at 681 s.

`CCOC(=O)COC(=O)c1cn(-c2ccc(OCC)cc2)c(=O)c2ccccc12` had an RP-LC retention time of 1070 s.

`O=C(CSc1cc(-n2cccn2)ncn1)Nc1cc(Cl)ccc1Cl`: the RP-LC retention time turned out to be 1090 s.

As for `CCN1CCN(C(=O)CN2C(=O)COc3ccc(C(=O)N4CCCC4)cc32)CC1`, the RP-LC retention time came out at 571 s.

As to `CC1CCC(NC(=O)C2CCCN(C(=O)c3cc(-c4cccnc4)n[nH]3)C2)CC1` (stereo not drawn), the RP-LC retention time turned out to be 636 s.

Compound `CCOc1nc2ccccc2nc1N1CCCC(C(=O)Nc2ccc(Br)c(C)c2)C1` (stereo not drawn) yielded an RP-LC retention time of 1420 s.

In turn, `Cc1c(CC(=O)NCC(C)C)c(=O)n2nc(-c3ccccc3)nc2n1C` yielded an RP-LC retention time of 717 s.
